The text below walks through data of US20080103198A1, “METHODS FOR TREATMENT OF COCHLEAR AND VESTIBULAR DISORDERS” (priority 2006, published 2008).

Assay [1] concerns Li-Pilo SE. Description: Lithium-pilocarpine model (Example 2): quantification of cell densities. In kind it is in vivo, rat. As to the method: Quantification of cell densities was performed at two times after SE: a first group was studied 14 days after SE and was composed by 7 DZP, 8 RWJ30, 11 RWJ60, 10 RWJ90, 8 RWJ120 and 8 control rats not subjected to SE. A second group used for the study of the latency to SRS was sacrificed either 8 weeks after the first SRS or at 5 months when no SRS could be seen in that delay and was composed by 7 DZP, 2 RWJ30, 3 RWJ60, 3 RWJ90, 4 RWJ120 rats. Animals were deeply anesthetized with 1.8 g/kg pentobarbital (Dolethal®, Vétoquinol, Lure, France). Brains were then removed and frozen. Serial 20 μm slices were cut in a cryostat, air-dried during several days before thionine staining. Quantification of cell densities was performed with a 10×10 boxes 1 cm^2 microscopic grid on coronal sections according to the stereotaxic coordinates of the rat brain atlas (Paxinos and Watson, 1986, The Rat Brain in Stereotaxic coordinates, 2nd ed. Academic Press, San Diego). The grid of counting was placed on a well-defined area of the cerebral structure of interest and counting was carried out with a microscopic enlargement of 200- or 400-fold defined for each single cerebral structure. Cell counts were performed twice on each side of three adjacent sections for each region by a single observer unaware of the animal's treatment. The number of cells obtained in the 12 counted fields in each cerebral structure was averaged. This procedure was used to minimize the potential errors that could result from double counting leading to overestimation of cell numbers. […] Counts involved only neurons with cell bodies larger than 10 μm. Cells with small cell bodies were considered as glial cells and were not counted.
For neuronal damage, statistical analysis between groups was performed by means of a one-way analysis of variance followed by a post-hoc Scheffe's test using the Statview software.

The subject of assay [2] is Li-Pilo SE. Nature of the assay: Lithium-pilocarpine model (Example 2): mortality and latency to SRS. In kind it is in vivo, rat. On the set-up: degree of mortality: concentration or dose not given beside the values. As to the method: The model induced in rats by pilocarpine associated with lithium (Li-Pilo) reproduces most of the clinical and neurophysiological features of human temporal lobe epilepsy (See, Turski et al., 1989; Synapse 3:154-171; Cavalheiro, 1995, Ital J Neurol Sci 16:33-37). In adult rats, the systemic administration of pilocarpine leads to SE that may last for up to 24 h. The lethality rate reaches 30-50% during the first days. In the surviving animals, neuronal damage predominates within the hippocampal formation, the piriform and entorhinal cortices, thalamus, amygdaloid complex, neocortex and substantia nigra.
In the present study, we tested the effects of different doses of various doses of test compound, i.e. 30, 60, 90 and 120 mg/kg (referred to herein as RWJ30, RWJ60, RWJ90 and RWJ120) using the same design as in the previous study. The treatment was started one hour after the onset of status epilepticus (SE) and the animals were treated with a second injection of the same dose of the drug. This early treatment of SE was followed by a 6 day test compound treatment. This report concerns the effects of the four different doses of test compound on neuronal damage in hippocampus and parahippocampal cortices. The study on the latency to the onset of epilepsy is still incomplete but we will show the data we have got at present which have been performed on a limited group of animals. The latency to spontaneous epileptic seizures was correlated on the same rats to the number of neurons remaining in the areas involved in the circuit of seizures.
Adult male Sprague-Dawley rats provided by Janvier Breeding Center (Le Genest-St-Isle, France) were housed under controlled, uncrowded standard conditions at 20-22° C. (light/dark cycle, 7.00 a.m.-7.00 p.m. lights on), with food and water available ad libitum. All animal experimentation was performed in accordance with the rules of the European Communities Council Directive of Nov. 24, 1986 (86/609/EEC), and the French Department of Agriculture (License No 67-97).
All rats received lithium chloride (3 meq/kg, i.p., Sigma, St Louis, Mo., U.S.A.) and about 20 h later, all animals received also methylscopolamine bromide (1 mg/kg, s.c., Sigma) that was administered to limit the peripheral effects of the convulsant. SE was induced by injecting pilocarpine hydrochloride (25 mg/kg, s.c., Sigma) 30 min after methylscopolamine. The effects of increasing doses of test compound (RWJ) were studied in 5 groups of rats. The animals received either 2.5 mg/kg diazepam, i.m., (DZP), or 30, 60, 90 or 120 mg/kg of test compound (RWJ30, RWJ60, RWJ90, RWJ120), i.p., at 1 h after the onset of SE. The control group received vehicle instead of pilocarpine and test compound. The rats surviving SE were then injected about 10 h after the first test compound injection with a second i.p. injection of 1.25 mg/kg DZP for the DZP group or of the same dose of test compound as in the morning and were maintained under a twice daily test compound treatment for 6 additional days (s.c.) while DZP rats received a vehicle injection. The effects of the four doses of test compound on the latency to occurrence of spontaneous recurrent seizures (SRS) were investigated by daily video recording of the animals for 10 h per day.

The mark [3] stands for this setting: 14 days after SE, DZP 2.5 mg/kg i.m., mean ± S.E.M.
[4] abbreviates: DZP vs control rats, 14 days after SE.

On to `CN1C(=O)CN=C(c2ccccc2)c2cc(Cl)ccc21` [DZP, diazepam, reference compound], for which, in the assay on Li-Pilo SE [1] (setting [3]), the “number of neuronal cell bodies, Dorsal entorhinal, layer II” value amounted to 23.5 ± 0.7; the “number of neuronal cell bodies, Dorsal entorhinal, layer III” value turned out to be 22.3 ± 0.5; the “number of neuronal cell bodies, Piriform, layer II, dorsal” value was found to be 12.6 ± 4.2; the “number of neuronal cell bodies, Piriform, layer II, ventral” value was 3.6 ± 0.7. In the assay with Li-Pilo SE [1] (setting [3]), the “number of neuronal cell bodies, Piriform, layer III” value was 1.2 ± 1.2; the “number of neuronal cell bodies, Ventral entorhinal, layer II” value was found to be 21.7 ± 1.3; the “number of neuronal cell bodies, Ventral entorhinal, layers III-IV” value is listed as 7.7 ± 2.3; the “number of neuronal cell bodies, hippocampus CA1 area” value was found to be 10.9 ± 1.9. In the assay with Li-Pilo SE [1] (setting [3]), the “number of neuronal cell bodies, hippocampus CA3 area” value stood at 31.3 ± 2.9 and the “number of neuronal cell bodies, hippocampus Hilus” value came to 33.5 ± 3.0. In addition, the “damage, entorhinal cortex dorsal layers II and III/IV and ventral layer II” value in the assay on Li-Pilo SE [1] (DZP group) was 18-24%. In the assay on Li-Pilo SE [1] (setting [4]), the “cell loss, CA1 pyramidal cell layer” value was 85%; the “cell loss, CA3” value worked out at 40%; the “cell loss, hilus of dentate gyrus” value is on record as 66%; the “cell loss, piriform cortex dorsal layer II” value was 66%. Moreover, in the assay with Li-Pilo SE [1] (setting [4]), the “cell loss, piriform cortex layer III” value stood at 94%; the “cell loss, piriform cortex ventral layer II” value was found to be 89%; the “damage, dorsal entorhinal cortex layer II” value is recorded as 18%; the “damage, dorsal entorhinal cortex layers III-IV” value is given as 24%. In the assay with Li-Pilo SE [1] (setting [4]), the “damage, ventral entorhinal cortex layer II” value is 22% and the “damage, ventral entorhinal cortex layers III/IV” value is 74%. Also, the “latency to spontaneous seizures (mean)” value with Li-Pilo SE [2] (DZP group, 7 rats) was 18 ± 8 days. For the same molecule, in the assay with Li-Pilo SE [2] (early cell counting group, DZP 2.5 mg/kg i.m.), the “mortality over the first 48 h after SE” value is listed as 47%. Also, in the assay on Li-Pilo SE [2] (latency to SRS / late cell counting group, DZP), the degree of mortality was found to be 30%.
